Data from patent US9598406B2, “Quinazolinone derivatives for use in the treatment of chlamydiales infections” (Commissariat a l'Energie Atomique et aux Energies …, priority 2015, dated 2017).

Key:
Type in all cases: cell-based
[1] = test system: Chlamydia trachomatis (Ctr) strain L2/434/Bu; assay: Chlamydia trachomatis progeny infection of HeLa229 cells, cellular protection by compounds at 25 μM (GFP-signal, Image J quantification); settings: HeLa229 cells pretreated 1 hour, Ctr MOI1, progeny infection fixed 48 hpi, versus solvent-treated cells
Method: HeLa229 (ATCC CCL-2.1). Cells were grown in RPMI1640 medium (Glutamax, 10% FBS, w/o HEPES) (Invitrogen).
Chlamydia trachomatis (Ctr). Laboratory-adapted strain L2/434/Bu (ATCC VR902B) was used in assays. Full biological and genetic information is available for this strain including complete genome sequence and defined proteome. This strain has a relatively low particle to infectivity ratio, perform efficient cell infection and has a higher viability than standard genital tract isolates with faster developmental cycle. Culture conditions have been described in (Wang Y., Kahane S., Cutcliffe L. T., Skilton R. J., Lambden P. R., Clarke I. N. Development of a transformation system for Chlamydia trachomatis: Restoration of glycogen biosynthesis by acquisition of a plasmid shuttle vector. PLoS Pathogen, 2011, 7(9):e1002258. doi: 10.1371/journal.ppat.1002258).
Compound application during Chlamydia trachomatis infection. HeLa229 cells were pretreated with Retro-2 and Retro-2 derivatives in concentrations of 25 μM for 1 hour until Chlamydia trachomatis (MOI1) were added to the cells. Compounds were present during infection. To obtain progeny infection, compound treated cells were lysed 24 h post infection (hpi) and lysate was used to infect fresh HeLa 229 cells. Infected cells of progeny infection were fixed with 4% Paraformaldehyde 48 hpi. Cells were stained for DAPI and Chlamydia trachomatis were detected by GFP-signal. Images are representative of n=2 independent experiments. Quantification of infected cells by Chlamydia trachomatis was realized from microscopy images with Image J software (FIG. 8) and cellular protection by compounds at 25 μM was then determined (Table 1) by comparison with solvent-treated cells (control) with the following equation: […]

[2] = test system: Simkania negevensis (Sn) strain Z; assay: Simkania negevensis (Sn) infectivity assays in HeLa229 cells (primary and progeny infection; GroEL immunoblot, inclusion size/number, microscopy, TEM)
Method: (§1) HeLa229 (ATCC CCL-2.1) were grown in RPMI1640 medium (Glutamax, 10% FBS, w/o HEPES) (Invitrogen). Stable HeLa229 cell lines were established to constantly label the Golgi apparatus (B4GalT1 in a pCMV6-AC-mRFP cloning vector, OriGene) and the ER (KDEL in a pDsRed2-ER expression vector).
Simkania negevensis (Sn) strain Z (ATCC VR-1471) was prepared as described previously (Mehlitz A, Karunakaran K, Herweg J A, Krohne G, van de Linde S, Rieck E, Sauer M, Rudel T. The chlamydial organism Sn forms ER vacuole contact sites and inhibits ER-stress. Cell Microbiol 2014; 16(8):1224-1243).
Briefly, HeLa229 cells were grown to 50-70% confluence, were inoculated with Sn in RPMI1640 with 5% FBS, for 6 h at 35° C. in a humidified incubator at 5% CO2. Medium was replaced by infection medium (RPMI1640, Glutamax, 5% FBS, w/o HEPES) and growth was allowed for 3 days. Cells were mechanically detached and bacteria were released using ˜2-5 mm glass beads (Carl Roth). Low speed supernatant (600×g, 4° C. and 5 min) was subjected to high-speed centrifugation (20,000×g, 4° C. and 30 min) to pellet bacteria. Bacteria were washed twice with 5 ml SPG (250 mM sucrose, 50 mM sodium phosphate, 5 mM glutamate, pH 7.4), aliquoted and stored at −80° C. in SPG.
40,000 HeLa cells were seeded in 12-well cluster plates, inhibitor-treated and infected as indicated in the respective experiments.
For infectivity assays cells were either fixed and stained at indicated time points (FIG. 2, 4; inclusion formation/primary infection) or bacteria were released via one freeze thaw cycle (−70° C./37° C.) followed by mechanical release through pipetting and transfer to fresh HeLa229 cells (1:25-1:50, progeny/infectivity). Cells were centrifuged for 1 h at 35° C. and medium exchanged to infection medium. […] Infectivity assays were imaged on an automated fluorescence microscope Leica DMIR (FIG. 4). Numbers and average sizes of the SCV as well as host cell numbers were determined via GroEL and DAPI staining and images were analysed and quantified using FIJI (ImageJ) and Excel (Microsoft). […]

[3] = test system: Chlamydia trachomatis (Ctr) strain L2/434/Bu; assay: Chlamydia trachomatis (Ctr) infectivity assays in HeLa229 cells with Retro-2 at 25, 50 and 75 μM (HSP60 immunoblot, GFP-signal)
Method: as §1
Chlamydia trachomatis (Ctr). Laboratory-adapted strain L2/434/Bu (ATCC VR902B) was used in assays. Full biological and genetic information is available for this strain including complete genome sequence and defined proteome. This strain has a relatively low particle to infectivity ratio, perform efficient cell infection and has a higher viability than standard genital tract isolates with faster developmental cycle. […]
(A) Cells with primary infection were lysed 24 h post infection (hpi). […] Progeny infection was lysed 24 hpi and analyzed together with primary infection samples by immunoblot. Chlamydial growth was detected with antibodies against chlamydial HSP60 protein and Actin was used as loading control (FIG. 6).
(B) Infected cells were fixed with 4% Paraformaldehyde 24 hpi. Cells were stained by Alexa-680 coupled Phalloidin and Ctr were detected by GFP-signal (FIG. 7).

Row | SMILES | Cellular protection at 25 μM (%) [1] | further results
1 | Cc1nc(-c2ccc(C3Nc4ccccc4C(=O)N3c3ccccc3)s2)cs1 (centres unmarked) [Compound 25, 2-(5-(2-methylthiazol-4-yl)thiophen-2-yl)-3-phenyl-2,3-dihydroquinazolin-4(1H)-one] | 100% | –
2 | Cc1ccc(C2Nc3ccccc3C(=O)N2c2ccccc2)s1 (centres unmarked) [Retro-2, 2-(5-methylthiophen-2-yl)-3-phenyl-2,3-dihydroquinazolin-4(1H)-one] | 18.1% | Concentration at which maximal inhibition of Sn replication was observed ([2]; HeLa cells, FIGS. 1-4): 75 µM; Effect on primary and progeny infection for Sn ([2]; HeLa cells, Retro-2 at 25 and 75 μM, GroEL western, inclusion size, inclusion number, microscopy): inhibitir effect on primary and progeny infection; Sn inclusions morphology (transmission electron microscopy) ([2]; infected HeLa cells, versus DMSO-treated control, FIG. 5): sub-vacuolar membranes were highly enlarged and contained excessive membrane material; Ctr Hsp60 detection in the progeny infection ([3]; 75 μM of Retro-2, immunoblot, FIG. 6): almost no Ctr Hsp60 detection; Effect on Ctr development (Hsp60 western, GFP-expressing Ctr inclusions) ([3]; HeLa229 cells, Retro-2 25, 50 and 75 μM, primary infection 24 hpi): strong inhibitory effect
3 | Cc1nc(-c2ccc(C3N(C)c4ccccc4C(=O)N3c3ccccc3Cl)s2)cs1 (centres unmarked) [RN-3-072, 3-(2-chlorophenyl)-1-methyl-2-(5-(2-methylthiazol-4-yl)thiophen-2-yl)-2,3-dihydroquinazolin-4(1H)-one] | 100% | –
4 | CN1c2ccccc2C(=O)N(c2ccccc2)C1c1ccc(Br)s1 (centres unmarked) [RN-2-016, 2-(5-bromothiophen-2-yl)-1-methyl-3-phenyl-2,3-dihydroquinazolin-4(1H)-one] | 91.8% | –
5 | Cc1nc(-c2ccc(C3N(C)c4ccc(F)cc4C(=O)N3c3ccccc3)s2)cs1 (centres unmarked) [Retro-2.1, 6-fluoro-1-methyl-2-(5-(2-methylthiazol-4-yl)thiophen-2-yl)-3-phenyl-2,3-dihydroquinazolin-4(1H)-one] | 100% | –
6 | CN1c2ccccc2C(=O)N(c2ccccc2)C1c1ccc(-c2csc(-c3ccc(F)cc3)n2)s1 (centres unmarked) [VP-89, 2-(5-(2-(4-fluorophenyl)thiazol-4-yl)thiophen-2-yl)-1-methyl-3-phenyl-2,3-dihydroquinazolin-4(1H)-one] | 88.5% | –
